Experimental data as given in PubChem BioAssay AID1996.
≈ marks a conversion by molar mass, not a printed value.

conditions: buffer; pH 7.4; 200.0 µM

| SMILES | solubility kinetic [mg/mL] |
| --- | --- |
| COc1ccc2c(c1)C=C(CN1CCN(C(C)C)C(CCO)C1)CO2 (configuration not stated) | 0.0345 (≈ 99.6 µM) |
| CC1CC(C)(C)NC(=S)O1 (configuration not stated) | > 0.0239 |
| CCc1ccccc1NC(=S)N(CCN(C)C)C(C)c1ccco1 (configuration not stated) | 0.0505 (≈ 146 µM) |
| COc1nc2ccccc2nc1CCC(=O)O | > 0.0348 |
| COc1ccc(CC(=O)NCc2ccc(F)cc2)cc1S(=O)(=O)N1CCOCC1 | > 0.0634 |
| CCOc1ccc(CNCc2ccccc2Cl)cc1.Cl | 0.0316 |
| O=C(OCc1ccc(Cl)c(Cl)c1)c1ccc[nH]1 | 0.0019 (≈ 7.03 µM) |
| CCNC(=O)c1ccc(=O)n(Cc2ccc(Cl)cc2Cl)c1 | 0.039 (≈ 120 µM) |
| O=C(Nc1ccc(OC(F)(F)F)cc1)Oc1ccccc1N1CCCCC1 | 0.0097 (≈ 25.5 µM) |
| O=[N+]([O-])c1ccc(N2CCN(c3cccc(Cl)c3)CC2)nc1 | 0.0004 (≈ 1.25 µM) |
| O=C1c2ccccc2NC(c2cccc(O)c2)N1Cc1ccco1 (configuration not stated) | > 0.0481 |
| O=C(CN1CCOCC1)NNC(=S)Nc1ccccc1 | > 0.0442 |
| CCC1CCCCN1CC(=O)c1c(C)[nH]c2ccc(OC)cc12 (configuration not stated) | 0.035 (≈ 111 µM) |
| Cc1c(N2CCCC2)cc2c(c1N)C(C)(C)CC2(C)C | 0.0192 (≈ 70.5 µM) |
| CN(C)S(=O)(=O)c1ccc(C(=O)OCC(=O)NC(=O)NC2CCCC2)cc1 | 0.0079 (≈ 19.9 µM) |
| CNC(=S)Nc1ccc(C)c(NC(=S)NC)c1 | > 0.0403 |
| O=C1CC(c2ccccc2)CC(O)=C1C=NCc1ccncc1 (configuration not stated) | > 0.046 |
| O=C(O)CCSc1nc2ccccc2n1Cc1ccccc1 | 0.0437 (≈ 140 µM) |
| O=C(CSc1nc2ccccc2c(=O)n1-c1ccccc1F)N1CCOCC1 | 0.0543 (≈ 136 µM) |
| COc1cc(NC(C)CCc2ccccc2)cc(OC)c1OC (configuration not stated) | > 0.0473 |
| CCOc1ccc(OCCn2c(=S)[nH]c3c(N)ncnc32)cc1 | 0.0201 (≈ 60.7 µM) |
| O=C(CC1NCCN(Cc2ccccc2)C1=O)Nc1ccccc1 (configuration not stated) | 0.0415 (≈ 128 µM) |
| CCOC(=O)C1CCC(CNCc2ccccc2C)CC1.Cl (configuration not stated) | 0.0443 |
| Cc1ccc(CNc2ccc(N3CCOCC3)cc2)cc1 | > 0.0424 |
| Cn1cccc1C(=O)NCC(c1ccco1)N1CCCCC1 (configuration not stated) | > 0.0452 |

| SMILES | solubility kinetic [mg/mL] |
| --- | --- |
| Nc1c(C(=O)OCC(=O)Nc2ccccc2Br)[nH]c(=O)[nH]c1=O | 0.0256 (≈ 66.8 µM) |
| O=C(O)c1ccc(NS(=O)(=O)c2cc(Cl)sc2Cl)cc1 | > 0.0528 |
| O=C1COc2ccc(C(=O)COc3ccc([N+](=O)[O-])cc3)cc2N1 | 0.0008 (≈ 2.44 µM) |
| CCNC(=O)COC(=O)c1cccc(Br)c1 | 0.0408 (≈ 143 µM) |
| Cc1ccc(NC(c2ccccc2)c2nc3ccccc3[nH]c2=O)cc1 (configuration not stated) | 0.0005 (≈ 1.46 µM) |
| O=C(NCCC(=O)N1CCCC1)c1ccccc1Cl | > 0.0421 |
| Br.CC1=C(c2ccccc2)SC2=NCCN21 | > 0.0446 |
| COc1ccc(N(Cc2cc(=O)[nH]c3ccccc23)C(C)=O)cc1 | > 0.0484 |
| O=C(c1ccncc1)N1CCN(c2ccc3ccccc3n2)CC1 | > 0.0478 |
| CC(C)(CNS(=O)(=O)c1ccc(Br)s1)N1CCOCC1 | > 0.0575 |
| Cc1nc(SCC(=O)Nc2ccc(S(=O)(=O)N3CCOCC3)cc2)c2c(C)c(C)sc2n1 | 0.0073 (≈ 14.8 µM) |
| O=C(c1cccs1)N1CCN=C1SCc1ccc(F)cc1 | < 0.0003 |
| O=[N+]([O-])c1ccc(N2CCCCC2)cc1 | 0.0199 (≈ 96.5 µM) |
| Cc1ccc(C(C[N+](=O)[O-])c2c(N)n(C)c(=O)n(C)c2=O)cc1 (configuration not stated) | > 0.0477 |
| Cc1cc(SCC(=O)NCC2CCCO2)nc2ccccc12 (configuration not stated) | > 0.0475 |
| CC(C)(C)C(=O)Oc1cccc(Nc2ncnc3ccccc23)c1 | 0.0341 (≈ 106 µM) |
| CCCOc1ccc(N2C(=O)C3C4C=CC(CC4)C3C2=O)cc1 (configuration not stated) | 0.0046 (≈ 14.8 µM) |
| O=C(NCc1ccc2c(c1)OCO2)Nc1ccc2nsnc2c1 | 0.0025 (≈ 7.61 µM) |
| COc1ccc(C(=O)C[n+]2ccc3ccccc3c2C)cc1.[Br-] | 0.0161 |
| CC(CCc1ccccc1)NC(=O)C1CCC1 (configuration not stated) | > 0.0347 |
| Cc1ccc(S(=O)(=O)N(C)c2ccc(OC(=O)COc3ccccc3)cc2)cc1 | 0.0187 (≈ 45.4 µM) |
| O=C(NCCNC(=O)c1ccco1)c1ccco1 | 0.0305 (≈ 123 µM) |
| CCN1CCN(Cc2cc(=O)oc3ccc(C)cc23)CC1 | > 0.043 |
| O=C(CCCSc1ccccc1)Nc1cccc(CO)c1 | > 0.0452 |
| CCOc1ccc(-c2nc3scc(-c4cccs4)c3c(=O)[nH]2)cc1 | < 0.0004 |

| SMILES | solubility kinetic [mg/mL] |
| --- | --- |
| C=CCn1c(O)c(C(CC)=NCc2ccc3c(c2)OCO3)c(=O)[nH]c1=O | 0.003 (≈ 8.39 µM) |
| CCc1ccccc1N1CN(Cc2ccco2)CNC1=S | > 0.0452 |
| O=C(/C=C/c1ccco1)NC(=S)N1CCCCC1 | 0.0274 (≈ 104 µM) |
| O=C(Nc1ccccc1F)C1CCCC1 | 0.0234 (≈ 113 µM) |
| N#Cc1c(Cl)nsc1NCCN1CCOCC1 | > 0.0409 |
| CSc1cccc(NC(C)C(=O)NCc2ccccc2)c1 (configuration not stated) | 0.0374 (≈ 124 µM) |
| CC1CN(CC(=O)Nc2ccc(S(N)(=O)=O)cc2)CC(C)O1 (configuration not stated) | > 0.0491 |
| O=C(COC(=O)c1cccc(F)c1)NCCC1=CCCCC1 | 0.0095 (≈ 31.1 µM) |
| Cc1nc2c(C)cccn2c(=O)c1NC(=O)c1ccco1 | > 0.0425 |
| O=C(NCc1ccco1)/C(=C\C=C\c1ccccc1)NC(=O)c1ccco1 | > 0.0544 |
| Cc1cc(C(=O)CCC(=O)NCC(=O)Nc2c(C)cccc2C)c(C)s1 | > 0.0559 |
| CCOC(=O)c1c(C)[nH]c(C(=O)NCc2ccccn2)c1C | 0.0155 (≈ 51.4 µM) |
| O=C(O)C(=O)O.c1cncc(CNCCc2ccc3c(c2)OCO3)c1 | > 0.052 |
| COC(=O)CSc1nccc(-c2ccc(F)cc2)c1C#N | < 0.0003 |
| CS(=O)(=O)Nc1ccc(-c2cn3c(n2)SCC3)cc1 | 0.0436 (≈ 148 µM) |
| Cc1c(C(=O)N2CCOCC2)sc(NC(=O)CCl)c1C#N | > 0.0492 |
| CCCNC(=O)c1ccc(COc2ccc(C(C)(C)C)cc2)o1 | 0.0109 (≈ 34.6 µM) |
| CCOc1ccc(NC(=O)N2CC(C)OC(C)C2)cc1 (configuration not stated) | > 0.0418 |
| Cc1ccc(S(=O)(=O)n2c(N)nc3ccccc32)cc1 | 0.0027 (≈ 9.4 µM) |
| CC(C)c1ccc(NC(=S)N2CCCC2)cc1 | > 0.0373 |
| CCOC(=O)c1sc(=S)n(-c2ccccc2Cl)c1C | 0.0027 (≈ 8.6 µM) |
| COc1ccccc1N1CCN(C(=S)Nc2ccccc2)CC1 | 0.0393 (≈ 120 µM) |
| Cc1ccc(C(=O)NCCc2ccccc2)cc1N1CCCC1=O | > 0.0484 |
| CN(C)C(=S)Nc1ccc2c(c1)OCCO2 | > 0.0357 |
| Cc1ccccc1NC(=O)CSc1ccncc1 | 0.036 (≈ 139 µM) |

| SMILES | solubility kinetic [mg/mL] |
| --- | --- |
| S=C1SCN(Cc2cccnc2)CN1Cc1cccnc1 | > 0.0475 |
| Cc1cc(C)cc(N=Cc2c(O)c3ccccc3oc2=O)c1 | < 0.0006 |
| COc1ccc(C(C)(C)C)cc1NC(=O)C1CCCO1 (configuration not stated) | 0.0415 (≈ 150 µM) |
| COc1ccc2c(c1OC)C(=O)N(c1ccc(O)cc1)C2=O | 0.0414 (≈ 138 µM) |
| O=C(O)c1nccnc1C(=O)Nc1ccccc1-c1ccccc1 | > 0.0479 |
| COc1ccc(C(=O)COC(=O)c2cccnc2SC)cc1 | < 0.0007 |
| Cc1nc2ccc(NC(=O)c3ccc(Br)o3)cc2s1 | 0.0051 (≈ 15.1 µM) |
| CC(=O)Nc1sc2c(c1C#N)CCC2 | > 0.0309 |
| CCOc1ccc(NC(=O)COC(=O)c2cc(C)oc2C)cc1 | 0.0042 (≈ 13.2 µM) |
| O=C(COc1ncnc2ccccc12)NC1CCCC1 | > 0.0407 |
| O=C(Nc1ccccc1Cl)c1cc(=O)c2ccccc2o1 | 0.0007 (≈ 2.34 µM) |
| COc1ccc(C(=O)OCC(=O)N2CCc3ccccc32)cc1S(=O)(=O)N1CCOCC1 | 0.0248 (≈ 53.9 µM) |
| O=C(CNC(=O)c1ccc(=O)[nH]c1)Nc1ccc(F)c(F)c1 | > 0.0461 |
| COC(=O)c1ccc(C)c(NC(=O)CCCN2C(=O)CN(C)C2=O)c1 | > 0.0521 |
| CCOc1ccc(NC(=S)Nc2cccnc2)cc1 | 0.0333 (≈ 122 µM) |
| CC1=C/C(=N\OS(=O)(=O)c2ccccc2)C=CC1=O | 0.0079 (≈ 28.5 µM) |
| Cc1cccnc1NC(=O)Nc1ccc(Cl)cc1 | 0.0007 (≈ 2.67 µM) |
| COc1ccc(OCCC(=O)Nc2ccccc2)cc1 | > 0.0407 |
| CC(=O)Nc1cccc(OCCCNC(=O)C2CCC2)c1 | > 0.0436 |
| CC(=O)Nc1ccc(-c2csc(-c3cccnc3)n2)cc1 | 0.0059 (≈ 20 µM) |
| CC1CCCN(CC(=O)c2ccc(Cl)c(Cl)c2)C1 (configuration not stated) | 0.026 (≈ 90.8 µM) |
| COC(=O)C1C(O)=C(C=Nc2cccc3ccccc23)C(=O)CC1(C)C (configuration not stated) | 0.0316 (≈ 89.9 µM) |
| COc1ccc(NS(=O)(=O)c2cn(C)cn2)cc1 | > 0.0401 |
| Cc1cc(NC(=O)CSc2nc3c(C)cccc3cc2C)no1 | < 0.0002 |
| CC(NC(=O)COC(=O)C12CC3CC(CC(O)(C3)C1)C2)c1ccccc1 (configuration not stated) | > 0.0536 |

| SMILES | solubility kinetic [mg/mL] |
| --- | --- |
| COc1ccc(CNC(=O)CSc2nccn(-c3ccc(F)c(F)c3)c2=O)cc1 | 0.0124 (≈ 29.7 µM) |
| CC(C)c1ccc(N=C(N)N=C(N)N)cc1.Cl | > 0.0384 |
| O=C(c1ccccc1NS(=O)(=O)c1ccccc1)N1CCCCCC1 | > 0.0538 |
| COc1ccc(-c2csc(N=C(N)N)n2)cc1 | 0.0122 (≈ 49.1 µM) |
| CN1CCN(c2nnc(-c3ccc(F)cc3)c3ccccc23)CC1 | > 0.0484 |
| COCCCNC(=S)Nc1ccc(C)cc1[N+](=O)[O-] | 0.0401 (≈ 142 µM) |
| NS(=O)(=O)c1ccc(CCNC(=O)c2ccc3ccccc3n2)cc1 | 0.0106 (≈ 29.8 µM) |
| CNC(=O)c1sc(-c2ccccn2)nc1C | > 0.035 |
| COc1ccccc1NC(=O)COC(=O)c1cn(C)c2ccccc12 | 0.0015 (≈ 4.43 µM) |
| O=C(Nc1ccc2c(c1)C(=O)OC2)c1ccc(Cl)cc1 | < 0.0006 |
| CCc1ccc(NC(=O)c2cnc(SC)nc2C)cc1 | 0.0174 (≈ 60.5 µM) |
| Cc1cccc(OCc2nc(-c3ccc(Br)o3)no2)c1 | 0.001 (≈ 2.98 µM) |
| Cc1nc(N2CCOCC2)[nH]c(=O)c1C(O)C(Cl)(Cl)Cl (configuration not stated) | 0.0471 (≈ 137 µM) |
| COC(=O)c1ccc(/C=C(\C#N)c2ccccn2)cc1 | 0.0018 (≈ 6.81 µM) |
| Cc1cccc(C(=O)NCC(=O)N(C)Cc2nc3ccccc3c(=O)[nH]2)c1 | > 0.0547 |
| Cc1cccc(NS(=O)(=O)c2ccc([N+](=O)[O-])cc2)n1 | 0.0394 (≈ 134 µM) |
| O=C(COC(=O)C12CC3CC(CC(C3)C1)C2)NCc1ccccc1 | 0.0102 (≈ 31.2 µM) |
| O=C(NCCC(=O)N1CCc2ccccc21)c1ccccc1Cl | 0.0321 (≈ 97.6 µM) |
| Cc1ccccc1NC(=S)NNC(=O)c1ccncc1 | > 0.043 |
| CS(=O)(=O)N1CCc2nc(-c3ccccc3)sc2C1 | 0.0104 (≈ 35.3 µM) |
| CC1CCCN(CCS(=O)(=O)c2ccccc2)C1 (configuration not stated) | 0.0395 (≈ 148 µM) |
| Cc1ccc(S(=O)(=O)N2CC(C)C(=O)CC2C)cc1 (configuration not stated) | 0.0386 (≈ 137 µM) |
